Converted amounts (≈) assume the structure as drawn.
Columns and labels:
[1] = system: H influenzae 33929; assay: MIC, H influenzae 33929; assay type: cell-based, Haemophilus influenzae; settings: for MIC: Haemophilus influenzae, 33929, Table 5; for H. influenzae 33929 (microbiological data): Table 6, related compounds of US 6878691
Description: (§1) Susceptibility tests can be used to quantitatively measure the in vitro activity of an antimicrobial agent against a given bacterial isolate. Compounds are tested for in vitro antibacterial activity by a micro-dilution method. Minimal Inhibitory Concentration (MIC) is determined in 96 well microtiter plates utilizing the appropriate broth medium for the observed bacterial isolates. Antimicrobial agents are serially diluted (2-fold) in DMSO to produce a concentration range from about 64 μg/ml to about 0.03 μg/ml. The diluted compounds (2 μl/well) are then transferred into sterile, uninoculated medium (0.2 mL) by use of a 96 fixed tip-pipetting station. The inoculum for each bacterial strain is standardized to approximately 5×10^5 CFU/mL by optical comparison to a 0.5 McFarland turbidity standard. The plates are inoculated with 10 μl/well of adjusted bacterial inoculum. The 96 well plates are covered and incubated at 35±2° C. for 24 hours in ambient air environment. Following incubation, plate wells are visually examined by Optical Density measurement for the presence of growth (turbidity). The lowest concentration of an antimicrobial agent at which no visible growth occurs is defined as the MIC.
(§2) All in vitro testing follows the guidelines described in the Approved Standards M7-A7 protocol, published by the Clinical Laboratory Standards Institute (CLSI).

[2] = system: H influenzae 49247; assay: MIC, H influenzae 49247; assay type: cell-based, Haemophilus influenzae; settings: for MIC: Haemophilus influenzae, 49247, Table 5; for H. influenzae 49247 (microbiological data): Table 6, related compounds of US 6878691
Description: as §1, §2

[3] = system: MRSA 33591; assay: MIC, MRSA 33591; assay type: cell-based, Staphylococcus aureus; settings: for MIC: Staphylococcus aureus, MRSA, Table 5; for MRSA 33591 (microbiological data): Table 6, related compounds of US 6878691
Description: as §1, §2

[4] = system: MRSA 7662; assay: MIC, MRSA 7662; assay type: cell-based; settings: Staphylococcus aureus, Table 5, read-out: MIC MRSA 7662
Description: as §1, §2

| MIC [1] | MIC [2] | MIC [3] | MIC [4] | SMILES | MRSA 33591 (microbiological data) [3] | H. influenzae 33929 (microbiological data) [1] | H. influenzae 49247 (microbiological data) [2] |
| --- | --- | --- | --- | --- | --- | --- | --- |
| 2 mg/L (≈ 2.4 µM) | 1 mg/L (≈ 1.2 µM) | – | – | CC[C@H]1OC(=O)[C@H](C)C(=O)[C@H](C)[C@@H](O[C@@H]2O[C@H](C)C[C@H](N(C)C)[C@H]2O)[C@@]2(C)C[C@@H](C)C(=O)[C@H](C)[C@@H](OC/C(=N\OCc3ccc(-c4nc(N)ns4)cn3)CO2)[C@]1(C)O [Compound 2] | – | – | – |
| 4 mg/L (≈ 4.42 µM) | 1 mg/L (≈ 1.1 µM) | 2 mg/L (≈ 2.21 µM) | 1 mg/L (≈ 1.1 µM) | CCC(=O)/N=C1\[C@H](C)C[C@@]2(C)OC/C(=N/OCc3csc(-c4cccc(N)n4)n3)CO[C@H]([C@H]1C)[C@](C)(O)[C@@H](CC)OC(=O)[C@@](C)(F)C(=O)[C@H](C)[C@H]2O[C@@H]1O[C@H](C)C[C@H](N(C)C)[C@H]1O [Compound 3] | – | – | – |
| – | – | 4 mg/L (≈ 4.5 µM) | 2 mg/L (≈ 2.25 µM) | CCC(=O)/N=C1\[C@H](C)C[C@@]2(C)OC/C(=N/OCc3coc(-c4cccc(N)n4)n3)CO[C@H]([C@H]1C)[C@](C)(O)[C@@H](CC)OC(=O)[C@@](C)(F)C(=O)[C@H](C)[C@H]2O[C@@H]1O[C@H](C)C[C@H](N(C)C)[C@H]1O [Compound 11] | – | – | – |
| – | – | – | – | CCC1OC(=O)C(C)C(=O)C(C)C(OC2OC(C)CC(N(C)C)C2O)C2(C)CC(C)C(=NC(C)=O)C(C)C(OCC(=NOCc3ccc(-c4cccnc4)s3)CO2)C1(C)O (centres unmarked) [Example 66 in US 6878691] | >64 | 16 | 16 |
| – | – | – | – | CCC1OC(=O)C(C)C(=O)C(C)C(OC2OC(C)CC(N(C)C)C2O)C2(C)CC(C)C(=NC(C)=O)C(C)C(OCC(=NOCc3cc(-c4cccnc4)no3)CO2)C1(C)O (centres unmarked) [Example 69 in US 6878691] | >64 | 16 | 16 |
| – | – | – | – | CCC1OC(=O)C(C)C(=O)C(C)C(OC2OC(C)CC(N(C)C)C2O)C2(C)CC(C)C(=NC(C)=O)C(C)C(OCC(=NOCc3ccc(-c4csnn4)cc3)CO2)C1(C)O (centres unmarked) [Example 72 in US 6878691] | >64 | 8 | 8 |
| – | – | – | – | CCC1OC(=O)C(C)C(=O)C(C)C(OC2OC(C)CC(N(C)C)C2O)C2(C)CC(C)C(=NC(C)=O)C(C)C(OCC(=NOCc3ccc(-n4cncn4)cc3)CO2)C1(C)O (centres unmarked) [Example 91 in US 6878691] | >64 | 16 | 8 |
| – | – | – | – | CCC1OC(=O)C(C)C(=O)C(C)C(OC2OC(C)CC(N(C)C)C2O)C2(C)CC(C)C(=NC(C)=O)C(C)C(OCC(=NOCc3noc(-c4ccccc4)n3)CO2)C1(C)O (centres unmarked) [Example 106 in US 6878691] | >64 | 8 | 8 |
| – | – | – | – | CCC1OC(=O)C(C)C(=O)C(C)C(OC2OC(C)CC(N(C)C)C2O)C2(C)CC(C)C(=NC(C)=O)C(C)C(OCC(=NOCc3ccc(-c4ccccn4)s3)CO2)C1(C)O (centres unmarked) [Example 115 in US 6878691] | >64 | 16 | 16 |
| – | – | – | – | CCC1OC(=O)C(C)(F)C(=O)C(C)C(OC2OC(C)CC(N(C)C)C2O)C2(C)CC(C)C(=NC(C)=O)C(C)C(OCC(=NOCc3ccc(-c4ncccn4)s3)CO2)C1(C)O (centres unmarked) [Example 140 in US 6878691] | 16 | 8 | 8 |
| – | – | – | – | CCC1OC(=O)C(C)(F)C(=O)C(C)C(OC2OC(C)CC(N(C)C)C2O)C2(C)CC(C)C(=NC(C)=O)C(C)C(OCC(=NOCc3ccc(-c4cnccn4)s3)CO2)C1(C)O (centres unmarked) [Example 141 in US 6878691] | 32 | 8 | 8 |
| – | – | – | – | CCC1OC(=O)C(C)(F)C(=O)C(C)C(OC2OC(C)CC(N(C)C)C2O)C2(C)CC(C)C(=NC(C)=O)C(C)C(OCC(=NOCc3ccc(-c4cccc(N)n4)s3)CO2)C1(C)O (centres unmarked) [Example 173 in US 6878691] | 4 | 4 | 4 |
| – | – | – | – | CCC1OC(=O)C(C)C(=O)C(C)C(OC2OC(C)CC(N(C)C)C2O)C2(C)CC(C)C(=NC(C)=O)C(C)C(OCC(=NOCc3ccc(-c4ncccn4)cc3)CO2)C1(C)O (centres unmarked) [Example 193 in US 6878691] | 64 | 8 | 8 |
| – | – | – | – | CCNC(=O)c1cccc(-c2cc(CON=C3COC4C(C)C(=NC(C)=O)C(C)CC(C)(OC3)C(OC3OC(C)CC(N(C)C)C3O)C(C)C(=O)C(C)C(=O)OC(CC)C4(C)O)on2)n1 (centres unmarked) [Example 195 in US 6878691] | >64 | 32 | 32 |
| – | – | – | – | CCC1OC(=O)C(C)C(=O)C(C)C(OC2OC(C)CC(N(C)C)C2O)C2(C)CC(C)C(=NC(C)=O)C(C)C(OCC(=NOCc3ccc(-c4cccs4)nc3)CO2)C1(C)O (centres unmarked) [Example 205 in US 6878691] | >64 | 4 | 8 |
| – | – | – | – | CCC1OC(=O)C(C)C(=O)C(C)C(OC2OC(C)CC(N(C)C)C2O)C2(C)CC(C)C(=NC(C)=O)C(C)C(OCC(=NOCc3ccc(-c4nccs4)nc3)CO2)C1(C)O (centres unmarked) [Example 212 in US 6878691] | 64 | 4 | 8 |
| – | – | – | – | CCC1OC(=O)C(C)(F)C(=O)C(C)C(OC2OC(C)CC(N(C)C)C2O)C2(C)CC(C)C(=NC(C)=O)C(C)C(OCC(=NOCc3ccc(-n4cccn4)nc3)CO2)C1(C)O (centres unmarked) [Example 214 in US 6878691] | 64 | 4 | 8 |
| – | – | – | – | CCC1OC(=O)C(C)(F)C(=O)C(C)C(OC2OC(C)CC(N(C)C)C2O)C2(C)CC(C)C(=NC(C)=O)C(C)C(OCC(=NOCc3ccc(-c4csnn4)cc3)CO2)C1(C)O (centres unmarked) [Example 219 in US 6878691] | 32 | 4 | 4 |
| – | – | – | – | CCC1OC(=O)C(C)C(=O)C(C)C(OC2OC(C)CC(N(C)C)C2O)C2(C)CC(C)C(=NC(C)=O)C(C)C(OCC(=NOCc3ccc(-c4cccc(N)n4)nc3)CO2)C1(C)O (centres unmarked) [Example 227 in US 6878691] | 32 | 4 | 4 |
| – | – | – | – | CCC1OC(=O)C(C)C(=O)C(C)C(OC2OC(C)CC(N(C)C)C2O)C2(C)CC(C)C(=NC(C)=O)C(C)C(OCC(=NOCc3ccc(-c4nnc(N)s4)nc3)CO2)C1(C)O (centres unmarked) [Example 234 in US 6878691] | >64 | 4 | 4 |
| – | – | – | – | CCC1OC(=O)C(C)C(=O)C(C)C(OC2OC(C)CC(N(C)C)C2O)C2(C)CC(C)C(=NC(C)=O)C(C)C(OCC(=NOCc3cnc(-n4cccn4)c(F)c3)CO2)C1(C)O (centres unmarked) [Example 259 in US 6878691] | >64 | 8 | 4 |
